Source: US20240174657A1, “SELECTIVE ANGIOTENSIN II RECEPTOR LIGANDS” (priority 2021, published 2024)

How the values were obtained:
Format in all cases: in vitro ADME
[1] = Metabolic hydrolysis, statement in text without method; settings: found during development
CYP3A4&5 = experiment: CYP inhibition in human liver microsomes, testosterone substrate; settings: probe testosterone, read-out: CYP3A4&5 testosterone Inh %
[2] = system: Cytochrome P450 enzymes (CYPs), especially CYP 2C9 and CYP 3A4; experiment: CYP enzyme inhibition, statements in text without method; settings: found during development

## CCCCOC(=O)NS(=O)(=O)c1sc(CC(C)C)cc1-c1ccc(Cn2ccnc2)cc1 [Example C21, N-butyloxycarbonyl-3-(4-imidazol-1-ylmethylphenyl)-5-isobutylthiophene-2-sulfon-amide]
[1]
  metabolic hydrolysis (in words): rapidly hydrolysed to an inactive sulfonamide metabolite
CYP3A4&5
  inhibition at 10 µM: 94%
[2]
  inhibition of Cytochrome P450 enzymes (in words): potent inhibitor
